# Experimental data as given in paper PMC13081163, “Discovery of a novel Nrf2 activator that modulates mitochondrial function in neurons by regulating DHRS3-Nrf2 interaction after ischemic stroke” (Theranostics, 2026).
# How the values were obtained:
# [1] = Pharmacokinetics in male rats (LC-MS/MS); assay type: in vivo; conditions: SD, rat, plasma, iv, 5 mg/kg
# Description: Male SD rats were intravenous injection with Cpd.51, blood and brain tissues were collected 15 min, 1 h, 4 h, 6 h, 8 h and 24 h after drug administration. Samples were measured by a Shimadzu chromatography system (Shimadzu, Kyoto, Japan) coupled with an AB Sciex triple quadrupole 4500 mass spectrometer (SCIEX Triple Quad™ 4500 LC-MS/MS, Applied Biosystems Sciex, Ontario, Canada) using Analyst 1.4.2 software. A HPLC column (ACQUITY UPLC BEH C18, 2.1 × 50 mm, 1.7 μm) were used. Protein precipitation method was used for detection: 50 μL plasma sample or brain homogenate sample were added with 200 μL acetonitrile containing internal standard for precipitation, then vortexed for 3 min. The supernatant was injected into system for analysis after centrifugation.
# [2] = test system: SH-SY5Y cells and primary cortical neuron cells; assay: Mitochondrial function in the OGD/R model (JC-1, Calcein-AM, DCFH-DA, ATP); assay type: cell-based
# Description: Experiment two: mitochondrial ATP levels were assayed using ATP assay kit (S0027, Beyotime, China) according to the manufacturer's protocols. The cells were cultured by placing them in six-well plates as described in the "Cell culture and drug administration in vitro" method. Subsequently, 200 uL of lysate was added into the hole and supernatants were collected (4 °C, 12000 g, 5 min). 100 uL supernatants cultured with 100 µL probe of ATP, and the RLU was measured by a luminometer.
# Assay of ROS generation production: cellular ROS were examined using an ROS Assay Kit (S0033S, Beyotime, China). Cells were incubated with DCFH-DA for 20 min at 37 °C in the dark, and then washed three times with PBS. The fluorescence intensity was measured by Laser Scanning Confocal Microscope (CLSM; ZEISS LSM 800, Germany).
# Mitochondrial membrane potential (MMP) and MPTP assessment: MMP changes were measured by a mitochondrial membrane potential assay kit with JC-1 (C2003S, Beyotime, China) according to the manufacturer's instructions. Higher ratios of red to green fluorescence were correlated with higher mitochondrial membrane polarization. In addition, MPTP opening was assessed by Calcein-AM assays (Y237214-1mg, Beyotime, China). […] For detailed instructions, please refer to the manual.
# [3] = test system: primary cortical neurons; assay: OGD/R damage in primary cortical neurons (CCK-8); assay type: cell-based, rat
# Description: To mimic ischemic conditions in vitro, cells were washed with PBS and then cultured for 2.5 h at 37 °C in glucose-free medium under anaerobic conditions (5% hydrogen, 90% nitrogen, and 5% carbon dioxide). OGD process was terminated by transferring cells back to normal glucose-containing medium under normoxic conditions (5% CO₂, 37 °C) and maintained for 24 h.
# In the administration group, cells were exposed for 12 h with Cpd.51 prior to OGD. OGD lasted for 2.5 h and the reperfusion lasted for 24 h before the experiment was concluded. Subsequently, cell viability was determined using the cell counting kit-8 (CCK-8, C0039, Beyotime, China). In the experiment to explore the treatment time window, the only difference was the timing of the Cpd.51 treatment, while all other procedures remained unchanged.
# Rat primary neuronal cells collected from the cerebral cortices of embryos (embryonic day 18) from pregnant SD rats were isolated and cultured. In brief, the cerebral cortex tissue of […] was removed and cut into small pieces using ophthalmic curved shears. The tissue was repeatedly pipetted after the addition of preheated 0.25% Trypsin digestive solution (BR00083, ABclonal, China). Finally, twice the volume of the culture medium was added and terminated the digestion to complete the extraction of primary cortical cells. […]
smiles,measurement,setting,value
CC1(C)CCC2(C(=O)NO)CCC3(C)C(C(=O)C=C4C5(C)C=C(C#N)C(=O)C(C)(C)C5CCC43C)C2C1 (stereo not shown) [Cpd.51],AUC(0-t),[1],991 ± 70 ng·h/mL
same,C0,[1],3410 ± 45 ng/mL
same,Cmax,[1],2120 ± 75 ng/mL
same,MRT last,[1],50.6 ± 3.24 min
same,clearance,"[1]; i.v., read-out: CL_obs (converted)",83.5 mL/min/kg
same,mitochondrial membrane potential (JC-1),[2],enhanced mitochondrial membrane potential
same,"mitochondrial permeability (MPTP, Calcein AM)",[2],reduced mitochondrial permeability
same,ATP production,[2]; SH-SY5Y cells,increased ATP production
same,reactive oxygen species production (DCFH-DA),[2]; SH-SY5Y cells,decreased reactive oxygen species production
same,efficacy in OGD/R-induced primary neuronal damage,[3],excellent efficacy
